Reference: ChEMBL document CHEMBL1201862, “PubChem BioAssay data set” (2004)
Activity calls are given as the source filed them.

Columns and labels:
[1] = target: T1, Mucolipin-3 (Homo sapiens, UniProt Q8TDD5); assay: Dose response cell-based high-throughput screening assay for agonists of the transient receptor potential channel ML3 (TRPML3). [Related pubchem assays: 1526, 1424, 1448 ]; type: functional
T1 sequence (Q8TDD5 whole entry): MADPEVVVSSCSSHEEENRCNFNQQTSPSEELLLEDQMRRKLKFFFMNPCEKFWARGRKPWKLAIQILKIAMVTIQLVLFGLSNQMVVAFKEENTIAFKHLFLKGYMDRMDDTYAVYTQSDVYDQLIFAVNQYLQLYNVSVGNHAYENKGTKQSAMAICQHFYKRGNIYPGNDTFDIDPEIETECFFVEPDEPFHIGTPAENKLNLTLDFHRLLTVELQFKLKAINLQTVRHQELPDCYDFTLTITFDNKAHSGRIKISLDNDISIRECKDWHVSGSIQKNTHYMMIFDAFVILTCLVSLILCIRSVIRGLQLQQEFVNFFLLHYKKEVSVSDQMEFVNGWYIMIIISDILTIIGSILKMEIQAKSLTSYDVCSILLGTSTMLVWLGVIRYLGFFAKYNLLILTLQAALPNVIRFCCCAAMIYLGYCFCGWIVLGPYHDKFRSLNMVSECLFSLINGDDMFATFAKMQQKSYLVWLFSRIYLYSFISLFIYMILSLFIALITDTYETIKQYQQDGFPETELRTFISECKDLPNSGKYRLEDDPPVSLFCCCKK

[2] = target: T2, Ion channel NompC (Danio rerio, UniProt Q7T1G6); assay: Fluorescence counterscreen assay for TRPML3 agonists: dose response cell-based high-throughput screening assay to identify agonists of the transient receptor potential channel N1 (TRPN1). [Related pubchem assays: 1526, 1424, 1448 ]; type: functional
[3] = target: T1, Mucolipin-3; assay: activators of mucolipin-3 and mucolipin-2 – cell-based, patch clamp, Fura-2 profiling panel, panel member TRPML3 Dose Response (AID 2116)
[4] = target: T2, Ion channel NompC; assay: activators of mucolipin-3 and mucolipin-2 – cell-based, […], Fura-2 profiling panel, panel member TRPN1 Dose Response (AID 2116)
[5] = NIH-3T3 fibroblast cytotoxicity, dose response, cytotoxicity control, cell-based, fluorescence, Alamar Blue, secondary assay (AID 2327); type: functional;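 further: NIH-3T3 mouse fibroblasts cultured with fluconazole at 8 µg/mL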
[6] = cells; type: functional, cell-based
[7] = fluconazole-exposed Candida albicans growth modulators – fluorescence, retest, confirmation (AID 2467); type: functional, cell-based
[8] = target: T3, Mannose-6-phosphate isomerase (Homo sapiens, UniProt P34949); assay: MPI enzyme activity inhibition – biochemical, fluorescence intensity, coupled assay, primary screen (AID 1209)
T3 sequence (P34949 whole entry): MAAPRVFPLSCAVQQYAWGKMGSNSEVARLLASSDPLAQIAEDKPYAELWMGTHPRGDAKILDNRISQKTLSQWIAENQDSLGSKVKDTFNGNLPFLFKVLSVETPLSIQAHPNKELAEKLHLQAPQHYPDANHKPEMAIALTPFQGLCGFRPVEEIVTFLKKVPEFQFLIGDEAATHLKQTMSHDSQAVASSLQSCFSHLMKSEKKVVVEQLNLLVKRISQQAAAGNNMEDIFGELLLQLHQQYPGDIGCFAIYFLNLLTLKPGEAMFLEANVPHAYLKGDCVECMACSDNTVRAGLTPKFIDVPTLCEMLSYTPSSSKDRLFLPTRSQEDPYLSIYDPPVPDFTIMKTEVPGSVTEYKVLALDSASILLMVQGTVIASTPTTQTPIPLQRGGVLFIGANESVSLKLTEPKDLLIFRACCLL

[9] = cells; type: functional, cell-based; remark: listed apart in the source
[10] = target: T4, Serine/threonine-protein phosphatase (Candida dubliniensis (strain CD36 / CBS 7987 / NCPF 3949 / NRRLY-17841) (Yeast), UniProt B9W6M3); assay: blockers of CaCl2-induced CDRE-lacZ signaling – S. cerevisiae, luminescence, secondary, dose response (AID 2388); type: functional, cell-based;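 further: yeast reporter cells carrying a calcineurin-responsive lacZ construct stimulated with calcium chloride; luminescent beta-galactosidase reporter signal in whole cells rather than isolated phosphatase activity; potency for inhibition where a drop in reporter signal means calcineurin blockade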
T4 sequence (B9W6M3 whole entry): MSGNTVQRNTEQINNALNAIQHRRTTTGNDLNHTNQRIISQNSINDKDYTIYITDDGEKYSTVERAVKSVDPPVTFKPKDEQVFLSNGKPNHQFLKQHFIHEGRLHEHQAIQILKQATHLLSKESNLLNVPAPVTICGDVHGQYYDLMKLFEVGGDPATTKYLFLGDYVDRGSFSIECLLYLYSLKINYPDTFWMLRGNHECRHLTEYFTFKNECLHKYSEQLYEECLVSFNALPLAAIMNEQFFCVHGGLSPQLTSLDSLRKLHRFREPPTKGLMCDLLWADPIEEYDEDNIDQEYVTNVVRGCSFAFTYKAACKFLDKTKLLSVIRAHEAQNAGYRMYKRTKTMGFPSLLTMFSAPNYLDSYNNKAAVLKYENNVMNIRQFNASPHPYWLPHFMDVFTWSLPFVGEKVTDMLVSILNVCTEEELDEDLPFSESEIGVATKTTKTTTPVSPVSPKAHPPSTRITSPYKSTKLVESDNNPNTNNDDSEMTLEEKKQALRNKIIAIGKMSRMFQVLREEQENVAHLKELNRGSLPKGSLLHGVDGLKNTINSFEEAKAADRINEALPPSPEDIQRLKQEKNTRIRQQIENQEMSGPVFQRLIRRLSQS

[11] = mitochondrial function rescue without frataxin homolog – Friedreich's ataxia, plus single-dose screen, dose response (AID 1465); type: functional;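 further: yeast depleted of Yfh1p frataxin homolog grown on glycerol needing respiration; WST-1 tetrazolium dye reduction as measure of cellular dehydrogenase metabolic activity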
[12] = target: Induced myeloid leukemia cell differentiation protein Mcl-1 (Homo sapiens, UniProt Q07820); type: functional
[13] = target: T3, Mannose-6-phosphate isomerase; assay: MPI inhibition at elevated mannose 6-phosphate – biochemical, fluorescence intensity, high mannose 6-phosphate, primary screen (AID 1220)
[14] = target: T5, Coagulation factor XII (Homo sapiens, UniProt P00748); type: functional;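 further: activated factor XIIa alpha cleaving a fluorogenic AMC peptide substrate; inhibitor potency from loss of enzyme activity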
T5 sequence (P00748 whole entry): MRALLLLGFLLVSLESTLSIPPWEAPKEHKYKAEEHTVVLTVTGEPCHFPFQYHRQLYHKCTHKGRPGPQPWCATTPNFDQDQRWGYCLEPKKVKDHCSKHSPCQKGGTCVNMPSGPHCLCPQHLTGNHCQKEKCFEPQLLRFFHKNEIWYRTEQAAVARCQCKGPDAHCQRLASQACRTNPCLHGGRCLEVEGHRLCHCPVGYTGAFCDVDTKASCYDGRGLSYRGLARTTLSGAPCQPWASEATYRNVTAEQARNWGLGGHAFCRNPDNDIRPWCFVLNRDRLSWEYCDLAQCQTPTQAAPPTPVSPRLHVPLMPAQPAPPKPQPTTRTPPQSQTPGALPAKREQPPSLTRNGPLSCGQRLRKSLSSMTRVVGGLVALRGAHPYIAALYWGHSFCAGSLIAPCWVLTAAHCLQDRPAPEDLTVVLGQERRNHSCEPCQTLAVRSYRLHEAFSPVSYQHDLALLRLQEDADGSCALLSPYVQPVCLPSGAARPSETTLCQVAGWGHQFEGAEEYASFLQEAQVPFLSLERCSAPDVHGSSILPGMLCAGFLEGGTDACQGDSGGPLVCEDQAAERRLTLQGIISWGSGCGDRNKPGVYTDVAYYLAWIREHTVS

[15] = target: ATP-dependent molecular chaperone HSP82 (Candida albicans (strain WO-1) (Yeast), UniProt C4YTQ8); assay: steroid-induced GRE reporter decrease in yeast – S. cerevisiae, luminescence, Hsp90 inhibitor project, dose response (AID 2400); type: functional, cell-based;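 further: beta-galactosidase luminescence from glucocorticoid response element reporter as proxy for Hsp90 function; inhibitor potency where signal loss means Hsp90 inhibition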
[16] = target: G2/mitotic-specific cyclin-B1 (Homo sapiens, UniProt P14635); assay: Counterscreen assay for inhibitors of Wee1 degradation: dose response cell-based assay to identify inhibitors of cyclin B degradation. [Related pubchem assays: 1410, 1321 ]; type: functional
[17] = target: Wee1-like protein kinase (Homo sapiens, UniProt P30291); assay: Dose Response Cell-based Assay for Inhibitors of Wee1 Degradation. [Related pubchem assays: 1410, 1321 ]; type: functional
[18] = target: Mitogen-activated protein kinase 10 (Homo sapiens, UniProt P53779); assay: Dose response biochemical screening assay for inhibitors of c-Jun N-Terminal Kinase 3 (JNK3). [Related pubchem assays: 746 ]
[19] = test system: Jurkat; assay: blockers of NF-kB activation in T cells – Jurkat, luciferase reporter, luminescence, B- and T-cell, dose response (AID 489004); type: functional, cell-based; conditions: Homo sapiens;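 further: NF-kB luciferase reporter Jurkat cells stimulated with PMA plus ionomycin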
[20] = HEK-293T viability loss, compound-treated – cell-based, uHTS hits, cytotoxicity control for B/T-cell NF-kB inhibitor project, dose response (AID 489019); type: functional;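 further: IC50 reflects cytotoxicity as loss of cell viability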
[21] = target: T6, Delta-type opioid receptor (Homo sapiens, UniProt P41143); assay: HTS Image-Based Screen for Antagonists of the DOR Receptor. [Related pubchem assays (depositor defined):AID1777, AID1785, AID1786, AID2133]; type: functional
[22] = target: Mu-type opioid receptor (Homo sapiens, UniProt P35372); assay: HTS Image-Based Screen for Agonists of the MOR Receptor. [Related pubchem assays (depositor defined):AID1777, AID1785, AID1786, AID2133]; type: functional;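 further: imaging of beta-arrestin GFP recruitment into spots after receptor activation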
[23] = target: Neuropeptide Y receptor type 2 (Homo sapiens, UniProt P49146); assay: IC50 for human NPY-Y2 blockade – cell-based, counter-screen for NPY-Y1 antagonist project, dose response (AID 1278); type: functional
[24] = target: T6, Delta-type opioid receptor; assay: HTS Image-Based Screen for Agonists of the DOR Receptor. [Related pubchem assays (depositor defined):AID1777, AID1786, AID2133]; type: functional
[25] = target: Neuropeptide Y receptor type 1 (Homo sapiens, UniProt P25929); assay: IC50 of human NPY-Y1 blockers – cell-based, dose response (AID 1277); type: functional
[26] = target: T7, Kappa-type opioid receptor (Homo sapiens, UniProt P41145); type: functional
[27] = target: T7, Kappa-type opioid receptor; type: functional; remark: listed apart in the source

T7 sequence (P41145 whole entry): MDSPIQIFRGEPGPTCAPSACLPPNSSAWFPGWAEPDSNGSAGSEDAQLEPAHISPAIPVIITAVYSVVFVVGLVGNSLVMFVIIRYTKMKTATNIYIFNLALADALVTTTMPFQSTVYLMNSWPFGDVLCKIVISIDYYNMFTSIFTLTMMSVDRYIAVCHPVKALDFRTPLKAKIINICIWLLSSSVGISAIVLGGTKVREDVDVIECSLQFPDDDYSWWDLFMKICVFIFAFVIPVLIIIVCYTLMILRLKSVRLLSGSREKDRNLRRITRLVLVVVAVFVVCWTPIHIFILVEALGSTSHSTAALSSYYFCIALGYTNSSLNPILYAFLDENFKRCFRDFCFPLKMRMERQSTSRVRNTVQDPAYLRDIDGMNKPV
T2 sequence (Q7T1G6 whole entry): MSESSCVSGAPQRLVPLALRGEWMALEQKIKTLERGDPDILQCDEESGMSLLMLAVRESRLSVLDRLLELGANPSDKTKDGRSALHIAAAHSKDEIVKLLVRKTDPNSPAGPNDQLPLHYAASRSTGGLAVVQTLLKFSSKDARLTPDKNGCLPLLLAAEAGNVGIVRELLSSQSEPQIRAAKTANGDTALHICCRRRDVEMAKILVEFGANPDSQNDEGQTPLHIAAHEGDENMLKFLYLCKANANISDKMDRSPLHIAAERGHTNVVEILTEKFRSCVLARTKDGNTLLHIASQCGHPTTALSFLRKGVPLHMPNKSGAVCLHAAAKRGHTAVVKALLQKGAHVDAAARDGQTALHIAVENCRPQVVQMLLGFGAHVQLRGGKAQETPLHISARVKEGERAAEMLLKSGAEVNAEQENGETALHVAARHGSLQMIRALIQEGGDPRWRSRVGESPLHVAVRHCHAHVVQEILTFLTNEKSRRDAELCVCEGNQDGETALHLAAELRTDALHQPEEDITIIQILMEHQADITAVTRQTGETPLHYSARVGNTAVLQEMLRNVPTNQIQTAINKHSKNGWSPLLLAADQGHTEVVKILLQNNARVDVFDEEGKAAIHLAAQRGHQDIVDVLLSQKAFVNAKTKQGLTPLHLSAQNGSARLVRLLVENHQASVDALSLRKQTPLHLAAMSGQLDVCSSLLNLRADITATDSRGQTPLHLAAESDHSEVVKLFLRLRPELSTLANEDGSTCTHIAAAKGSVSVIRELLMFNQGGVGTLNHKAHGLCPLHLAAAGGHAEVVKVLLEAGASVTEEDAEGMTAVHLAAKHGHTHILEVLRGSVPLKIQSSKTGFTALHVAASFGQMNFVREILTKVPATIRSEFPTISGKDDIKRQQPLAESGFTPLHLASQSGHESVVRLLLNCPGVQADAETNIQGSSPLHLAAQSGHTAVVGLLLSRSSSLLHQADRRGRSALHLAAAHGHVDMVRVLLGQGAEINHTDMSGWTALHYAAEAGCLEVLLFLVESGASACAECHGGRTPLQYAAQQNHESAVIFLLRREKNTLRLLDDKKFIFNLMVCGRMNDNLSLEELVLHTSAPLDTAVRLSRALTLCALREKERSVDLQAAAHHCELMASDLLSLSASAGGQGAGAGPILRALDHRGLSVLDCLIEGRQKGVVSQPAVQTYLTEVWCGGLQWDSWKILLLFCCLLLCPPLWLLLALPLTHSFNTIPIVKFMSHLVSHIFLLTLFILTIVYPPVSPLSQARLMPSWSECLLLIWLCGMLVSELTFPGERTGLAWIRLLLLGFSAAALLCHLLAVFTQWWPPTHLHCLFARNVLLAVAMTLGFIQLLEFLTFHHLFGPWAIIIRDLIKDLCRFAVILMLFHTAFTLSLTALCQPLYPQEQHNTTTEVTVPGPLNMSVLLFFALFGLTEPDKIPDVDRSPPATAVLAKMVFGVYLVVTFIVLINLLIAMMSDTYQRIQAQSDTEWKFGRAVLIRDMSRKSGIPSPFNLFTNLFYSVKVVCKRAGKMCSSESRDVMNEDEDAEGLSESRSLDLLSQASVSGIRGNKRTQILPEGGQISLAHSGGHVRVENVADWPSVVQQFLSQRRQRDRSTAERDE
T6 sequence (P41143 whole entry): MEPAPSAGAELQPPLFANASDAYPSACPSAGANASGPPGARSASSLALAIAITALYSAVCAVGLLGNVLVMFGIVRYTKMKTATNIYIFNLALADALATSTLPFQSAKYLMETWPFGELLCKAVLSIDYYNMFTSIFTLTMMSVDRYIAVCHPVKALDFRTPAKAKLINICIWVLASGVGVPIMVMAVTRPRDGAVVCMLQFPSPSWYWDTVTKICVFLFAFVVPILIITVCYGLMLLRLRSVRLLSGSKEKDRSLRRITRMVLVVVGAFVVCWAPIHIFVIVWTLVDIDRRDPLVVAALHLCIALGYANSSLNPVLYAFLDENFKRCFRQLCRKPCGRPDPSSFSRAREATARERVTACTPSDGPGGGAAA
G2/mitotic-specific cyclin-B1, sequence (P14635 whole entry): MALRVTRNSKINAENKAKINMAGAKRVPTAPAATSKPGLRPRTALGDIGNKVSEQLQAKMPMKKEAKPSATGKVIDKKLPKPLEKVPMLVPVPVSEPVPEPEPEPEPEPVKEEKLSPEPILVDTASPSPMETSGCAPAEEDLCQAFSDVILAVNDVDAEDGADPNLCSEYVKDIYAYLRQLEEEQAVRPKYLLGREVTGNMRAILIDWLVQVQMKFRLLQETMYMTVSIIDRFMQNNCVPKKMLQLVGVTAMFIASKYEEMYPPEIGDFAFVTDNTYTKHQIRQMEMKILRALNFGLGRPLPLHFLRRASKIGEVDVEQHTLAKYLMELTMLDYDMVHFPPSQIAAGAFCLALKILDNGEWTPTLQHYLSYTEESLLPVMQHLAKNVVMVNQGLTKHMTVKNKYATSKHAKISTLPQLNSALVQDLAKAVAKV
Mu-type opioid receptor, sequence (P35372 whole entry): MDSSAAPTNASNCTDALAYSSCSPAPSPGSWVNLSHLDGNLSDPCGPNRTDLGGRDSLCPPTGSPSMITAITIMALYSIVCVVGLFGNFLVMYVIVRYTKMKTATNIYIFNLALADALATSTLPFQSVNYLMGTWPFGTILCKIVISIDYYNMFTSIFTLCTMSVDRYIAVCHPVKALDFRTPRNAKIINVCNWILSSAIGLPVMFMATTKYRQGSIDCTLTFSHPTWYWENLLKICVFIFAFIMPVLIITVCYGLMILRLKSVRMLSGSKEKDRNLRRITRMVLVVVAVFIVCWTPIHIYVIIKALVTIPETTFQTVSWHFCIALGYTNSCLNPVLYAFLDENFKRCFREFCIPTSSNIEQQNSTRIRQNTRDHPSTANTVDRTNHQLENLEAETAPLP
Neuropeptide Y receptor type 2, sequence (P49146 whole entry): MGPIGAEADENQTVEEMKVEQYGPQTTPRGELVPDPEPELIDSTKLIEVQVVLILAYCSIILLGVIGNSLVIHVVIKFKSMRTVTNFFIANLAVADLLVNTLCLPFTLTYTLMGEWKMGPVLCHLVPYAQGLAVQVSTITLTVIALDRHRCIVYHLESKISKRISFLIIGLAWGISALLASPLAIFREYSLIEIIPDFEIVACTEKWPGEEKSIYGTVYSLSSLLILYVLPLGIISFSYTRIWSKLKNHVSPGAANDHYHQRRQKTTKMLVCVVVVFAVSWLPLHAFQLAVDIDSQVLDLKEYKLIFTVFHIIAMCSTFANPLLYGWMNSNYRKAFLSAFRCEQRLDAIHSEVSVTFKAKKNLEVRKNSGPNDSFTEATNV
Mitogen-activated protein kinase 10, sequence (P53779 whole entry): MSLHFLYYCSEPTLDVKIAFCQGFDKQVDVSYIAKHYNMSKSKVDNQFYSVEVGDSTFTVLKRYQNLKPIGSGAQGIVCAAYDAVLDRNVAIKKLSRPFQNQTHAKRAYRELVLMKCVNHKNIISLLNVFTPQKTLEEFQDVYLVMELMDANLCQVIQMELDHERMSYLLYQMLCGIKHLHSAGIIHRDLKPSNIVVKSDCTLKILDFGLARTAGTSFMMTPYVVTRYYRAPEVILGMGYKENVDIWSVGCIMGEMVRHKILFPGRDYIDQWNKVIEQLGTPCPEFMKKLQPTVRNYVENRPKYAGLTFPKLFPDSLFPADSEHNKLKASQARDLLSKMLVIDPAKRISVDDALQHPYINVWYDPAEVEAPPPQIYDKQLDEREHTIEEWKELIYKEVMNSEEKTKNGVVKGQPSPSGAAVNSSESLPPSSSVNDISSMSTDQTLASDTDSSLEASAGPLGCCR
ATP-dependent molecular chaperone HSP82, sequence (C4YTQ8 whole entry): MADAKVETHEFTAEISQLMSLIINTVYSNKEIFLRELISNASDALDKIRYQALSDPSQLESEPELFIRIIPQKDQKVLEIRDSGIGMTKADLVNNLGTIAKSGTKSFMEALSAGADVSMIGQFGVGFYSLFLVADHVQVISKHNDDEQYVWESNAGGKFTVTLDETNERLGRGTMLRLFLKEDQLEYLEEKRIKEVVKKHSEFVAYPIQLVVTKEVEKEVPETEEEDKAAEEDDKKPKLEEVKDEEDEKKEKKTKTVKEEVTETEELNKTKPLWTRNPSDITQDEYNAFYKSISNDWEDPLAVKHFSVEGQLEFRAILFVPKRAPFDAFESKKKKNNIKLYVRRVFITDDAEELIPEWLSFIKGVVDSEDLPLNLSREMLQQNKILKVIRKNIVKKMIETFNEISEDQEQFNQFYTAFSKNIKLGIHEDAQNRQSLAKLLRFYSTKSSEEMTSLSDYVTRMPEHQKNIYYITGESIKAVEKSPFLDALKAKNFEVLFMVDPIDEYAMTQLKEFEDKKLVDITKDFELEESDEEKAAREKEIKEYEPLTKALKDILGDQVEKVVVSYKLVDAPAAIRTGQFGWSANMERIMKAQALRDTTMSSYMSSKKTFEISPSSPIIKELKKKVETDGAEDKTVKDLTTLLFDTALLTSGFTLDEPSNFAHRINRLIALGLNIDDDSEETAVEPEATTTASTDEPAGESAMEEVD

SMILES: Cc1ccc(N2CCN(S(=O)(=O)N3CCCCC3)CC2)c(C)c1
- EC50 [1]: 1.43 µM (active)
- EC50 [2]: > 29.9 µM (not active)
- EC50 [3]: 2 µM (active)
- EC50 [4]: > 29.9 µM (inactive)

SMILES: O=C(N/N=C/c1ccc(O)c(O)c1O)/C(=C/c1ccc([N+](=O)[O-])cc1)NC(=O)c1ccccc1
- EC50 [5]: > 160 µM (inactive)
- EC50 [6]: > 350 µM (not active)
- EC50 [7]: 0.587 µM (active)
- IC50 [8]: > 50 µM (not active)
- EC50 [9]: > 350 µM (not active)
- EC50 [10]: > 180 µM (inactive)
- EC50 [11]: > 100 µM (active)
- IC50 [12]: 19.3 µM (active)
- IC50 [13]: > 50 µM (not active)
- IC50 [14]: > 50 µM (inactive)
- EC50 [15]: > 160 µM (inactive)

SMILES: Cc1ccnc(NC(=O)CCCOc2cc(=O)n(C)c3ccccc23)c1
- EC50 [16]: > 49.7 µM (not active)
- EC50 [17]: 7.87 µM (active)
- IC50 [18]: 62.4 µM (not active)
- IC50 [19]: 6.22 µM (active)
- IC50 [20]: > 80 µM (inactive)

SMILES: O=C(c1cnccn1)N(Cc1ccco1)C1(C(=O)NC2CCCCC2)CCCCC1
- IC50 [21]: > 32 µM (inactive)
- EC50 [22]: > 32 µM (inactive)
- IC50 [23]: > 35 µM (not active)
- EC50 [24]: > 32 µM (inactive)
- IC50 [25]: > 35 µM (not active)
- EC50 [26]: 1.32 µM
- EC50 [27]: 2.39 µM
